Measured values taken from PubChem BioAssay (NCI).
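Values below derive from 48-hour exposures of cells grown in 96-well plates, with endpoints linearly interpolated between the two concentrations bracketing the appropriate inhibition level. At the GI50, growth is halved. TGI: total growth inhibition.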

Columns and labels:
Assay in all cases: NCI-60 cell line screen, 48 h
M14 melanoma = system: M14 melanoma
NCI-H23 lung = system: NCI-H23 lung
SR leukemia = system: SR leukemia
HCT-116 colon = system: HCT-116 colon
MOLT-4 leukemia = system: MOLT-4 leukemia
RPMI-8226 leukemia = system: RPMI-8226 leukemia
IGROV1 ovarian = system: IGROV1 ovarian
NCI-H226 lung = system: NCI-H226 lung
UACC-62 melanoma = system: UACC-62 melanoma
786-0 renal = system: 786-0 renal
DU-145 prostate = system: DU-145 prostate
MDA-MB-435 = system: MDA-MB-435
KM12 colon = system: KM12 colon
MCF7 breast = system: MCF7 breast
HCC-2998 colon = system: HCC-2998 colon
SK-MEL-2 melanoma = system: SK-MEL-2 melanoma
SF-268 CNS = system: SF-268 CNS
NCI-H460 lung = system: NCI-H460 lung
HL-60(TB) leukemia = system: HL-60(TB) leukemia
A498 renal = system: A498 renal
SNB-75 CNS = system: SNB-75 CNS
U251 CNS = system: U251 CNS
SN12C renal = system: SN12C renal
LOX IMVI melanoma = system: LOX IMVI melanoma
OVCAR-5 ovarian = system: OVCAR-5 ovarian
ACHN renal = system: ACHN renal
MALME-3M melanoma = system: MALME-3M melanoma
EKVX NSCLC = system: EKVX NSCLC
NCI/ADR-RES ovarian = system: NCI/ADR-RES ovarian
HS 578T breast = system: HS 578T breast
SNB-19 CNS = system: SNB-19 CNS
UO-31 renal = system: UO-31 renal
PC-3 prostate = system: PC-3 prostate
UACC-257 melanoma = system: UACC-257 melanoma
T-47D breast = system: T-47D breast
BT-549 breast = system: BT-549 breast
OVCAR-4 ovarian = system: OVCAR-4 ovarian
MDA-MB-231 breast = system: MDA-MB-231 breast
SF-539 CNS = system: SF-539 CNS
HT29 colon = system: HT29 colon
SW-620 colon = system: SW-620 colon
CCRF-CEM leukemia = system: CCRF-CEM leukemia
SK-MEL-5 melanoma = system: SK-MEL-5 melanoma
SK-OV-3 ovarian = system: SK-OV-3 ovarian
CAKI-1 renal = system: CAKI-1 renal
OVCAR-3 ovarian = system: OVCAR-3 ovarian
A549 NSCLC = system: A549 NSCLC
K-562 leukemia = system: K-562 leukemia
COLO 205 colon = system: COLO 205 colon
OVCAR-8 ovarian = system: OVCAR-8 ovarian
HOP-62 NSCLC = system: HOP-62 NSCLC
SF-295 CNS = system: SF-295 CNS
HOP-92 NSCLC = system: HOP-92 NSCLC
TK-10 renal = system: TK-10 renal
HCT-15 colon = system: HCT-15 colon
SK-MEL-28 melanoma = system: SK-MEL-28 melanoma
NCI-H522 lung = system: NCI-H522 lung
RXF 393 renal = system: RXF 393 renal

## NNC(=O)c1ccccc1Nc1nc(-c2cccs2)nc2ccc(Br)cc12
M14 melanoma
  TGI: > 100 µM
NCI-H23 lung
  TGI: > 100 µM
SR leukemia
  TGI: > 100 µM
HCT-116 colon
  TGI: > 100 µM
MOLT-4 leukemia
  TGI: > 100 µM
RPMI-8226 leukemia
  TGI: > 100 µM
IGROV1 ovarian
  TGI: > 100 µM
NCI-H226 lung
  TGI: > 100 µM
UACC-62 melanoma
  TGI: > 100 µM
786-0 renal
  TGI: > 100 µM
DU-145 prostate
  TGI: > 100 µM
MDA-MB-435
  TGI: > 100 µM
KM12 colon
  TGI: > 100 µM
MCF7 breast
  TGI: > 100 µM
HCC-2998 colon
  TGI: > 100 µM
SK-MEL-2 melanoma
  TGI: > 100 µM
SF-268 CNS
  TGI: > 100 µM
NCI-H460 lung
  TGI: > 100 µM
HL-60(TB) leukemia
  TGI: > 100 µM
A498 renal
  TGI: > 100 µM
SNB-75 CNS
  TGI: > 100 µM
U251 CNS
  TGI: > 100 µM
SN12C renal
  TGI: > 100 µM
LOX IMVI melanoma
  TGI: > 100 µM
OVCAR-5 ovarian
  TGI: > 100 µM
ACHN renal
  TGI: > 100 µM
MALME-3M melanoma
  TGI: > 100 µM
EKVX NSCLC
  TGI: > 100 µM
NCI/ADR-RES ovarian
  TGI: > 100 µM
HS 578T breast
  TGI: > 100 µM
SNB-19 CNS
  TGI: > 100 µM
UO-31 renal
  TGI: > 100 µM
PC-3 prostate
  TGI: > 100 µM
UACC-257 melanoma
  TGI: > 100 µM
T-47D breast
  TGI: > 100 µM
BT-549 breast
  TGI: > 100 µM
OVCAR-4 ovarian
  TGI: > 100 µM
MDA-MB-231 breast
  TGI: > 100 µM
SF-539 CNS
  TGI: > 100 µM
HT29 colon
  TGI: > 100 µM
SW-620 colon
  TGI: > 100 µM
CCRF-CEM leukemia
  TGI: > 100 µM
SK-MEL-5 melanoma
  TGI: > 100 µM
SK-OV-3 ovarian
  TGI: > 100 µM
CAKI-1 renal
  TGI: > 100 µM
OVCAR-3 ovarian
  TGI: > 100 µM
A549 NSCLC
  TGI: > 100 µM
K-562 leukemia
  TGI: > 100 µM
COLO 205 colon
  TGI: > 100 µM
OVCAR-8 ovarian
  TGI: > 100 µM
HOP-62 NSCLC
  TGI: > 100 µM
SF-295 CNS
  TGI: > 100 µM
HOP-92 NSCLC
  TGI: > 100 µM
TK-10 renal
  TGI: > 100 µM
HCT-15 colon
  TGI: > 100 µM
SK-MEL-28 melanoma
  TGI: > 100 µM
NCI-H522 lung
  TGI: > 100 µM

## O=C(OCC1OC(n2cc(C(F)(F)F)c(=O)[nH]c2=O)CC1OC(=O)c1ccc([N+](=O)[O-])cc1)c1ccc([N+](=O)[O-])cc1 (stereo unspecified)
M14 melanoma
  GI50: 1.96 µM
  TGI: 7.82 µM
NCI-H23 lung
  GI50: > 100 µM
  TGI: > 100 µM
SR leukemia
  GI50: 11.3 µM
  TGI: > 100 µM
HCT-116 colon
  GI50: 8.5 µM
  TGI: > 100 µM
MOLT-4 leukemia
  GI50: 14.8 µM
  TGI: > 100 µM
RPMI-8226 leukemia
  GI50: 2.12 µM
  TGI: > 100 µM
IGROV1 ovarian
  GI50: 25.4 µM
  TGI: > 100 µM
NCI-H226 lung
  GI50: 9.42 µM
  TGI: > 100 µM
UACC-62 melanoma
  GI50: 1.41 µM
  TGI: > 100 µM
786-0 renal
  GI50: 3.11 µM
  TGI: 18.6 µM
DU-145 prostate
  GI50: 0.885 µM
  TGI: > 100 µM
MDA-MB-435
  GI50: 2.36 µM
  TGI: > 100 µM
KM12 colon
  GI50: > 100 µM
  TGI: > 100 µM
MCF7 breast
  GI50: 1.26 µM
  TGI: > 100 µM
HCC-2998 colon
  GI50: 5.38 µM
  TGI: > 100 µM
SK-MEL-2 melanoma
  GI50: > 100 µM
  TGI: > 100 µM
SF-268 CNS
  GI50: 3.87 µM
  TGI: > 100 µM
NCI-H460 lung
  GI50: 3.43 µM
  TGI: > 100 µM
HL-60(TB) leukemia
  GI50: 7.37 µM
  TGI: > 100 µM
SNB-75 CNS
  GI50: 8.92 µM
  TGI: > 100 µM
U251 CNS
  GI50: 9.08 µM
  TGI: > 100 µM
SN12C renal
  GI50: 4.28 µM
  TGI: > 100 µM
LOX IMVI melanoma
  GI50: 4.81 µM
  TGI: > 100 µM
OVCAR-5 ovarian
  GI50: 41.8 µM
  TGI: > 100 µM
ACHN renal
  GI50: 1.17 µM
  TGI: > 100 µM
MALME-3M melanoma
  GI50: 92.3 µM
  TGI: > 100 µM
EKVX NSCLC
  GI50: > 100 µM
  TGI: > 100 µM
NCI/ADR-RES ovarian
  GI50: 16.7 µM
  TGI: > 100 µM
HS 578T breast
  GI50: > 100 µM
  TGI: > 100 µM
SNB-19 CNS
  GI50: > 100 µM
  TGI: > 100 µM
UO-31 renal
  GI50: 3.77 µM
  TGI: > 100 µM
PC-3 prostate
  GI50: 8.74 µM
  TGI: > 100 µM
UACC-257 melanoma
  GI50: 2.7 µM
  TGI: > 100 µM
T-47D breast
  GI50: 7.88 µM
  TGI: > 100 µM
BT-549 breast
  GI50: 7.42 µM
  TGI: > 100 µM
OVCAR-4 ovarian
  GI50: 54.7 µM
  TGI: > 100 µM
MDA-MB-231 breast
  GI50: > 100 µM
  TGI: > 100 µM
SF-539 CNS
  GI50: 2.03 µM
  TGI: > 100 µM
HT29 colon
  GI50: > 100 µM
  TGI: > 100 µM
SW-620 colon
  GI50: 6.2 µM
  TGI: > 100 µM
CCRF-CEM leukemia
  GI50: 3.86 µM
  TGI: > 100 µM
SK-MEL-5 melanoma
  GI50: 4.55 µM
  TGI: > 100 µM
SK-OV-3 ovarian
  GI50: 8.51 µM
  TGI: > 100 µM
CAKI-1 renal
  GI50: 3.29 µM
  TGI: > 100 µM
OVCAR-3 ovarian
  GI50: 23.8 µM
  TGI: > 100 µM
A549 NSCLC
  GI50: 4.95 µM
  TGI: > 100 µM
K-562 leukemia
  GI50: 94 µM
  TGI: > 100 µM
COLO 205 colon
  GI50: > 100 µM
  TGI: > 100 µM
OVCAR-8 ovarian
  GI50: 6.91 µM
  TGI: > 100 µM
RXF 393 renal
  GI50: 4.54 µM
  TGI: > 100 µM
HOP-62 NSCLC
  GI50: 8.97 µM
  TGI: > 100 µM
SF-295 CNS
  GI50: 3.72 µM
  TGI: > 100 µM
HOP-92 NSCLC
  GI50: 8.55 µM
  TGI: > 100 µM
TK-10 renal
  GI50: > 100 µM
  TGI: > 100 µM
HCT-15 colon
  GI50: 20.8 µM
  TGI: > 100 µM
SK-MEL-28 melanoma
  GI50: > 100 µM
  TGI: > 100 µM
NCI-H522 lung
  GI50: 5.65 µM
  TGI: > 100 µM
